Read-outs that look alike come from different tables or passages of the source.
Columns and labels:
Assay type in all cases: cell-based
Details in all cases: single compound, 7 days
[1] = test system: Pyricularia oryzae
[2] = test system: Botrytis cinerea; experiment: Activity against the grey mold Botrytis cinerea in the microtiterplate test (Botrci)
[3] = test system: Septoria tritici; experiment: Activity against leaf blotch on wheat caused by Septoria tritici (Septtr), microtiter plate
[4] = test system: Phytophthora infestans

CCS(CC)=NC(=O)c1cc(Cl)cc(C)c1NC(=O)c1cc(C(F)(F)F)nn1-c1ncccc1Cl [Compound I-11, 2-(3-chloro-2-pyridyl)-N-[2-methyl-4-chloro-6-[(diethyl-λ^4-sulfanylidene)carbamoyl]phenyl]-5-(trifluoromethyl)pyrazole-3-carboxamide] showed an Observed efficacy ([1]; 1 ppm) of 0, an Observed efficacy ([1]; 4 ppm) of 3 and an Observed efficacy ([1]; 63 ppm) of 10.

Fc1ccc([C@]2(Cn3cncn3)O[C@H]2c2ccccc2Cl)cc1 [Epoxiconazol] showed an Observed efficacy ([2]; 0.25 ppm) of 59.

With CO/C=C(/C(=O)OC)c1ccccc1COc1cccc(C(F)(F)F)n1 [Picoxystrobin] the Observed efficacy ([1]; 0.063 ppm) was 72 and the Observed efficacy ([3]; 0.063 ppm) was 53.

With CO/C=C(/C(=O)OC)c1ccccc1Oc1cc(Oc2ccccc2C#N)ncn1 [Azoxystrobin] the Observed efficacy ([1]; 0.016 ppm) was 38.

OC(Cc1ccccc1Cl)(Cn1nc[nH]c1=S)C1(Cl)CC1 (stereo not shown) [Prothioconazol] showed an Observed efficacy ([3]; 0.063 ppm) of 62.

With CO/N=C(/C1=NOCCO1)c1ccccc1Oc1ncnc(Oc2ccccc2Cl)c1F [Fluoxastrobin] the Observed efficacy ([3]; 0.25 ppm) was 70.

Work on Mancozeb yielded an Observed efficacy ([3]; 4 ppm) of 48.

In the case of CCCN(CCOc1c(Cl)cc(Cl)cc1Cl)C(=O)n1ccnc1 [Prochloraz], the Observed efficacy ([2]; 0.016 ppm) is reported as 14.

For CCS(CC)=NC(=O)c1cc(Cl)cc(Cl)c1NC(=O)c1cc(C(F)(F)F)nn1-c1ncccc1Cl [Compound I-16, 2-(3-chloro-2-pyridyl)-N-[2,4-dichloro-6-[(diethyl-λ^4-sulfanylidene)carbamoyl]phenyl]-5-(trifluoromethyl)pyrazole-3-carboxamide], the Observed efficacy ([4]; 16 ppm) was 23, the Observed efficacy ([1]; 1 ppm) was 3 and the Observed efficacy ([1]; 4 ppm) was 4. For the same compound, the Observed efficacy ([3]; 4 ppm) was 16 and the Observed efficacy ([3]; 63 ppm) was 17.

Compound COC(=O)N(OC)c1ccccc1COc1ccn(-c2ccc(Cl)cc2)n1 [Pyraclostrobin] has an Observed efficacy ([4]; 0.063 ppm) of 10, an Observed efficacy ([1]; 0.004 ppm) of 39 and an Observed efficacy ([1]; 0.016 ppm) of 49.

Work on O=C(Nc1ccccc1-c1ccc(Cl)cc1)c1cccnc1Cl [Boscalid] yielded an Observed efficacy ([1]; 16 ppm) of 10.

For CON=C(C(=O)OC)c1ccccc1CON=C(C)c1cccc(C(F)(F)F)c1 [Trifloxystrobin], the Observed efficacy ([1]; 0.016 ppm) was 29, the Observed efficacy ([1]; 0.063 ppm) was 29 and the Observed efficacy ([3]; 0.016 ppm) was 62.

Cc1cc(Cl)cc(C(=O)N=S(C(C)C)C(C)C)c1NC(=O)c1cc(C(F)(F)F)nn1-c1ncccc1Cl [Compound I-21, 2-(3-chloro-2-pyridyl)-N-[2-methyl-4-chloro-6-[(bis-2-propyl-λ^4-sulfanylidene)carbamoyl]phenyl]-5-(trifluoromethyl)pyrazole-3-carboxamide] was tested, and the Observed efficacy ([2]; 4 ppm) was 0, the Observed efficacy ([2]; 16 ppm) was 4 and the Observed efficacy ([1]; 1 ppm) was 0. It also gave an Observed efficacy ([1]; 4 ppm) of 0 and an Observed efficacy ([3]; 4 ppm) of 12.
